Measurements taken from article PMC9612383, “Biological Activity of NHC-Gold-Alkynyl Complexes Derived from 3-Hydroxyflavones” (Pharmaceutics, 2022).

How the values were obtained:
Caco-2 cells [1] = experiment: Intracellular ROS levels; type: cell-based, Human; details: Caco-2 cells, 10, 20 and 40 μM, 1 h incubation; p > 0.05
Protocol: Caco-2 cells were grown in 96-well plates (4000 cells/well) and incubated overnight at 5% CO2 and 37 °C. Then, cells were exposed to the required concentration of gold complex for 1 h and total intracellular ROS levels determination was performed as previously described by Sanchez-de-Diego et al..

E. coli 13216 = experiment: Disk diffusion test; type: cell-based; details: complex 5 μg, 24 h incubation; diameter including disk (6 mm)
Protocol: (§1) To evaluate the antibacterial potential of gold derivatives, six bacterial strains were selected: E. coli, P. aeruginosa, S. enterica, E. faecalis, L. monocytogenes, S. epidermidis, S. aureus. Dis diffusion assay was performed following Clinical & Laboratory Standards Institute (CLSI) recommendations. […] Plates were and incubated for 22 h ± 2 h at 37 °C ± 1 °C and then the diameter of the inhibition zone was determined.

S. epidermidis = experiment: Disk diffusion test; type: cell-based; details: complex 5 μg, 24 h incubation; diameter including disk (6 mm)
Protocol: as §1

S. enterica 14028 = experiment: Disk diffusion test; type: cell-based; details: complex 5 μg, 24 h incubation; diameter including disk (6 mm)
Protocol: as §1

L. monocytogenes = experiment: Disk diffusion test; type: cell-based; details: complex 5 μg, 24 h incubation; diameter including disk (6 mm)
Protocol: as §1

S. aureus 13565 = experiment: Disk diffusion test; type: cell-based; details: complex 5 μg, 24 h incubation; diameter including disk (6 mm)
Protocol: as §1

S. aureus 2593 = experiment: Disk diffusion test; type: cell-based; details: complex 5 μg, 24 h incubation; diameter including disk (6 mm)
Protocol: as §1

E. coli 8739 = experiment: Disk diffusion test; type: cell-based; details: complex 5 μg, 24 h incubation; diameter including disk (6 mm)
Protocol: as §1

E. faecalis = experiment: Disk diffusion test; type: cell-based; details: complex 5 μg, 24 h incubation; diameter including disk (6 mm)
Protocol: as §1

E. coli 25922 = experiment: Disk diffusion test; type: cell-based; details: complex 5 μg, 24 h incubation; diameter including disk (6 mm)
Protocol: as §1

P. aeruginosa = experiment: Disk diffusion test; type: cell-based; details: complex 5 μg, 24 h incubation; diameter including disk (6 mm)
Protocol: as §1

[2] = target: thioredoxin reductase (TrxR) (Escherichia coli, UniProt P0A9P4); details: E. coli cell lysates incubated with complex
Chain of thioredoxin reductase (TrxR) (P0A9P4 whole entry): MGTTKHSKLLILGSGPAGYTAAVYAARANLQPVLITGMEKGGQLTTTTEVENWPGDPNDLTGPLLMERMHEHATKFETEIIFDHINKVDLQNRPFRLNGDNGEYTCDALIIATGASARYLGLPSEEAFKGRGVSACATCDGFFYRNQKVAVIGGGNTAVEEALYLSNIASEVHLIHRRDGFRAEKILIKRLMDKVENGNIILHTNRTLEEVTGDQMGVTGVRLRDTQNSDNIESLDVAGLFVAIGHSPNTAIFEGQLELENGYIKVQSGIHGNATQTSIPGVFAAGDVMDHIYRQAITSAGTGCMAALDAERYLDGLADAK
Protocol: (§2) For sample preparation, E. coli were lysated by sonication. After ultrasonic homogenization, the lysate was centrifuged 1 min at 13,000 rpm and the pellet was resuspended in extraction buffer. […] Both extraction and reaction buffer consisted of 10 mM Tris-HCl, 1 mM EDTA, 100 mM NaCl and protease inhibitor.

[3] = tested on: panel of Gram-positive and Gram-negative strains; experiment: Disk diffusion method, whole panel (summary in words); type: cell-based; details: whole panel, Gram-positive and Gram-negative strains
Protocol: (§3) To evaluate the antibacterial potential of gold derivatives, […] bacterial strains were selected: E. coli, P. aeruginosa, S. enterica, E. faecalis, L. monocytogenes, S. epidermidis, S. aureus. Dis diffusion assay was performed following Clinical & Laboratory Standards Institute (CLSI) recommendations. Active cultures (0.5 McFarland) from all strains were spread onto Mueller–Hinton Agar (MHA, Oxoid, Basingstoke, UK) and disks impregnated with 10 µL of each gold complex or control (DMSO for negative control, phenol for positive control) were placed. Plates were and incubated for 22 h ± 2 h at 37 °C ± 1 °C and then the diameter of the inhibition zone was determined.
Given that NHC-gold derivatives might display antibacterial activity, we evaluated the antibacterial effect of the complexes toward a panel of Gram-positive and Gram-negative strains using the disk diffusion method. The selected strains are human pathogen or commensal bacteria and the results are summarized on Table 1.

[4] = n-Octanol-water distribution coefficient, shake-flask; type: physicochemical; details: n-octanol / buffered aqueous solution pH 7.4
Protocol: The n-octanol-water coefficients of the complexes were determined as previously reported using a shake-flask method. Buffered-saline distilled water (100 mL, phosphate buffer [PO4^3−] = 10 mM, [NaCl] = 0.15 M, pH 7.4) and n-octanol (100 mL) were shaken for 72 h to allow saturation of both phases. Approximately 1 mg of the complexes was dissolved in 5 mL of the aqueous phase and 5 mL of the organic phase were added, mixing for 10 min. The resulting emulsion was centrifuged to separate the phases. The concentration of the compounds in each phase was determined using UV absorbance spectroscopy. LogP was defined as log{[compound(organic)]/[compound(aqueous)]}.

S. enterica 25928 = experiment: Disk diffusion test; type: cell-based; details: complex 5 μg, 24 h incubation; diameter including disk (6 mm)
Protocol: as §3

Caco-2 cells [5] = experiment: MTT antiproliferative assay; type: cell-based, Human; details: Caco-2 cell line, 72 h incubation, mean ± SE
Protocol: Human colorectal adenocarcinoma Caco-2 cells were kindly provided by Dr. Edith Brot-Laroche (Universite Pierre et Marie Curie-Paris 6 UMR S872, Les Cordeliers, France) and were maintained in a humidified atmosphere of 5% CO2 at 37 °C in Dulbecco’s Modified Eagles medium (DMEM) (Gibco Invitrogen, Paisley, UK) supplemented with 20% fetal bovine serum, 1% non-essential amino acids, 1% penicillin (1000 U/mL), 1% streptomycin ([…]) and 1% amphotericin (250 U/mL). For treatment, gold complexes were initially dissolved in DMSO to a concentration of 20 mM and then diluted on cell culture without fetal bovine serum to the required work concentrations, which was added 24 h post-seeding. Then, cells were incubated at 37 °C for the required time for each assay.
Cell viability was determined with the 3-(4,5-dimethyl-2-thiazoyl)-2,5-diphenyltetrazolium bromide (MTT) assay as previously described by Mármol et al.. For IC50 calculation, cells were grown in 96-well plates at a density of 4000 cells per well and incubated overnight at standard culture conditions. Then, cells were exposed 72 h to 0–20 μM of each gold complex and changes in absorbance were converted into percentage of growth inhibition in comparison to negative control (DMSO. Absorbance was measured with SPECTROstar Nano (BMG Labtech).

[6] = target: T1, dihydrofolate reductase (DHFR) (Escherichia coli, UniProt P0ABQ4); experiment: DHFR activity assay in E. coli lysates; type: biochemical; details: E. coli lysates incubated with complex; p < 0.05
T1 construct: to 0.01–0.03 mg of cell lysate and completed with reaction buffer; endogenous in cells; host or cells: E. coli (lysate)
T1 sequence (P0ABQ4 whole entry): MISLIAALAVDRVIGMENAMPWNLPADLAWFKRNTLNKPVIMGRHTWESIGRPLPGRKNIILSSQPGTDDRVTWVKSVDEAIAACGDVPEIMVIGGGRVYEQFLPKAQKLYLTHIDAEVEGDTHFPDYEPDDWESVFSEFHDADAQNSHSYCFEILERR
Protocol: as §2

Q: Which “reactive oxygen species (ROS) levels” value (Caco-2 cells [1]) does the source give for `Cn1cc[n+](C)[c]1[Au-][C]#CCOc1c(-c2ccc(Br)cc2)oc2ccccc2c1=O` [1b, [Au(Lb)(IMe)] (R = Br; IMe = C5H10N2)] here?
A: no significant changes

Q: What about the “Inhibition Zone” value (E. coli 13216) of the same compound?
A: 10.95 ± 0.64 mm

Q: What about the “Inhibition Zone” value (S. epidermidis) of the same compound?
A: 25.05 ± 1.48 mm

Q: What about the “Inhibition Zone” value (S. enterica 14028) of the same compound?
A: 9.39 ± 1.26 mm

Q: What about the “Inhibition Zone” value (L. monocytogenes) of the same compound?
A: 18.50 ± 1.41 mm

Q: And the “Inhibition Zone” value (S. aureus 13565)?
A: 16.58 ± 1.63 mm

Q: And the “Inhibition Zone” value (S. aureus 2593)?
A: 13.76 ± 0.54 mm

Q: What about the “Inhibition Zone” value (E. coli 8739) of the same compound?
A: 11.10 ± 0.08 mm

Q: And the “Inhibition Zone” value (E. faecalis)?
A: 12.50 ± 1.41 mm

Q: And the “Inhibition Zone” value (E. coli 25922)?
A: 9.04 ± 2.17 mm

Q: What about the “Inhibition Zone” value (P. aeruginosa) of the same compound?
A: -

Q: What about the “TrxR activity (percentage respect to control)” value [2] of the same compound?
A: did not result in a significative reduction of TrxR activity

Q: What about the “antibacterial effect (in words)” value [3] of the same compound?
A: able to interfere with the development of both Gram positive and Gram negative strains

Q: What about the “LogP7.4 (distribution coefficient)” value [4] of the same compound?
A: 1.32

Q: What about the “Inhibition Zone” value (S. enterica 25928) of the same compound?
A: 8.90 ± 1.56 mm

Q: And the IC50 (Caco-2 cells [5])?
A: 23 ± 2.42 µM

Q: And the “DHFR activity (percentage respect to control)” value [6]?
A: significantly decreased DHFR activity
